Data set [1] concerns Mus musculus. As to the kind of experiment: Antiobesity activity in high fat diet-induced obese C57BL/6 mouse assessed as reduction in body weight at 50 umol/kg/day for 16 days relative to control. The format is functional. The arrangement: scale not given: the % may be the effect or the level left.
The test system of data set [2] is Mus musculus. As to the kind of experiment: Antiobesity activity in high fat diet-induced obese C57BL/6 mouse assessed as reduction in fat mass at 50 umol/kg/day for 16 days relative to control. Type of data set: functional. Set-up: scale not given: the % may be the effect or the level left.
Data set [3] can be described thus: Toxicity in rat. Particulars: in vivo.
A short description of data set [4]: Dissociation constant, pKa of compound.
Data set [5] is described as follows: Mitochondrial uncoupling activity in Arabidopsis root cells assessed as inhibition of clathrin-mediated endocytosis by measuring reduction of FM4-64 uptake. Type of data set: functional, mitochondria, Arabidopsis thaliana, Mitochondria.
Data set [6] relates to Mus musculus. As to the kind of experiment: Anorectic activity in C57Bl/6J mouse assessed as reduction in body weight at 30 umol/kg for 6 consecutive days relative to control. Type of data set: functional. The arrangement: scale not given: the % may be the effect or the level left.
Data set [7] in a line: Uncoupling activity in rat mitochondria assessed as increase in oxygen consumption by mitochondrial respiration assay. Type of data set: functional.
Data set [8] deals with Mus musculus. The experiment in a line: Anorectic activity in C57Bl/6J mouse assessed as reduction in fat mass at 30 umol/kg for 6 consecutive days relative to control. The format is functional. The arrangement: scale not given: the % may be the effect or the level left.
The test system of data set [9] is Mus musculus. As to the kind of experiment: Antiobesity activity in high fat diet-induced obese C57BL/6J mouse assessed as reduction in body fat mass at 5 mg/kg, po administered via gavage treated 3 times per week for 6 weeks relative to control. Type of data set: functional. The arrangement: scale not given: the % may be the effect or the level left.
Data set [10] concerns Mus musculus. The experiment in a line: Antiobesity activity in high fat diet-induced obese C57BL/6J mouse assessed as reduction in body weight at 5 mg/kg, po administered via gavage treated 3 times per week for 6 weeks relative to control. Type of data set: functional. The arrangement: scale not given: the % may be the effect or the level left.
The next data set relates to HL-60. The experiment in a line: Cytotoxicity against human HL60 cells after 24 to 48 hrs by MTT assay. The format is cell-based.
Data set [11] is described as follows: Acute toxicity in C57BL/6J mouse administered via oral gavage. Particulars: in vivo.
For another data set, the system named is C2C12. The experiment in a line: Cytotoxicity against mouse C2C12 cells after overnight incubation. The format is cell-based.
Data set [12] in a line: Toxicity in po dosed rat. The format is organism-based. Particulars: in vivo.
The nature of the next data set: in vivo. Particulars: mouse.
A further data set concerns Liver. As to the kind of experiment: Mitochondrial uncoupling activity in mouse liver mitochondria assessed as effect on succinoxldase coupled phosphorylation. The format is functional.
The nature of data set [13]: Toxicity in dog. Particulars: in vivo. The arrangement: species or system Canis lupus familiaris.
The nature of data set [14]: Toxicity in human assessed as weight loss.
A further data set has as its system 143B. The experiment in a line: Cytotoxicity against human 143B cells after 24 hrs by LDH release assay. Type of data set: cell-based.
The next data set has as its system HCT-116. As to the kind of experiment: Cytotoxicity against human HCT116 cells after 48 hrs by MTT assay. Particulars: HCT-116, 48 h. Type of data set: cell-based.
The nature of data set [15]: Acute toxicity in po dosed mouse. The format is organism-based. Particulars: in vivo.
A further data set deals with Hepatocyte. As to the kind of experiment: Cytotoxicity against Sprague-Dawley rat hepatocytes after 24 hrs by MTT assay. Type of data set: cell-based.

Some results are limits rather than exact numbers.

The record followed here is ChEMBL document CHEMBL4308823, “Small Molecule Mitochondrial Uncouplers and Their Therapeutic Potential” (J Med Chem, 2018).

As for `CCCCCCCCCCCC[P+](c1ccccc1)(c1ccccc1)c1ccccc1`, the values for the Activity with Mus musculus [1] and in the data set on Mus musculus [2] were 12% and 24%, respectively.

`NCCO.O=C(Nc1ccc([N+](=O)[O-])cc1Cl)c1cc(Cl)ccc1O` displayed an LD50 in [3] of 500 mg/kg.

Take `CC(C)(C)c1cc(Cl)cc(C(=O)Nc2ccc([N+](=O)[O-])cc2Cl)c1O`: in data set [4], the pKa was 5.8.

Turning to `O=[N+]([O-])c1ccc(NS(=O)(=O)c2ccc(Br)s2)cc1`, in data set [5], the IC50 was found to be 5 µM.

On to `CCCCOC(=O)c1ccccc1-c1c2cc(C)/c(=N\CC)cc-2oc2cc(NCC)c(C)cc12`, for which the pKa in data set [4] amounted to 7.3. The Activity in the data set with Mus musculus [6] is reported as 19%; with Mus musculus [8] it was 20%. Further, in data set [7], the EC50 came out at 1000 nM.

`O=C(Nc1cc(Cl)cc(Cl)c1)Nc1cc(Cl)cc(Cl)c1`: the Activity in the data set with Mus musculus [9] was 35%; with Mus musculus [10], 16%; in the data set with HL-60, greater than 25 µM.

`CCOC(=O)C1=C(C)N=c2s/c(=C/c3cc(Br)c(O)c(Br)c3)c(=O)n2C1c1ccc(Cl)cc1` (configuration not stated) had an LD50 in data set [11] of 12.7 mg/kg.

Compound `O=[N+]([O-])c1ccc(OCc2ccc(OCCCC[P+](c3ccccc3)(c3ccccc3)c3ccccc3)cc2[N+](=O)[O-])c([N+](=O)[O-])c1` yielded an Activity in the data set with C2C12 greater than 5 µM.

Consider `FC(F)(F)c1nc2c(Cl)c(Cl)c(Cl)c(Cl)c2[nH]1`, for which the pKa in [4] is 5.04 to 5.6. Moreover, in data set [12], the LD50 was 1.6 mg/kg.

As to `O=[N+]([O-])c1cc(CCC[P+](c2ccccc2)(c2ccccc2)c2ccccc2)cc([N+](=O)[O-])c1O`, the pKa in [4] was determined as 4.48.

The compound `N#CC(C#N)=NNc1ccc(OC(F)(F)F)cc1` came in with a pKa in data set [4] of 6.2. In “in vivo”, this compound showed a median lethal dose (LD50) of 8 mg/kg. The EC50 with Liver was 40 nM.

Take `O=[N+]([O-])c1ccc(O)c([N+](=O)[O-])c1` [2,4-DINITROPHENOL]: in data set [4], the pKa was 4.1. Further, the LD50 in [13] and in data set [12] was 30 mg/kg throughout. The LD in [14] was 0.8 to 3 g.

The compound `CCCCN1CCCCC1C(=O)Nc1c(C)cccc1C` (configuration not stated) [BUPIVACAINE] had a pKa in [4] of 8.1. In data set [3], this compound registered an LD50 of 4.25 to 12.7 mg/kg.

As for `N#CC(C#N)=NNc1cccc(Cl)c1` [CARBONYL CYANIDE M-CHLOROPHENYLHYDRAZONE], in the data set on Liver, the EC50 worked out at 100 nM.

Turning to `COC1=C(OC)C(=O)C(CCCCCCCCCC[P+](c2ccccc2)(c2ccccc2)c2ccccc2)=C(C)C1=O` [MITOQUINONE CATION], the Activity with 143B is greater than 10 µM.

On to `CC(C)(C)c1cc(C=C(C#N)C#N)cc(C(C)(C)C)c1O` [TYRPHOSTIN A9], for which the values for the IC50 with HCT-116 and in the data set with Hepatocyte were greater than 200 nM and greater than 970 nM, respectively. Besides, in [4], the pKa turned out to be 6.7. For the same compound, the median lethal dose (LD50) in [15] was determined as 29 mg/kg.
